Tests used:
[1] = test system: picornaviruses (CVB1, HRV-A2, HRV-A23, EV-68); assay: Anti-picornavirus cytopathic effect (CPE) reduction assay on HeLa H1 cells; format: cell-based; details: Enterovirus B, HeLa H1, 48 h, HeLa H1 cells, 48 h, category from averaging the EC50 values from four picornaviruses (CVB1, HRV-A2, HRV-A23, EV68); read-out: EC50 values of the compounds determined in the anti-picornavirus assay
Procedure: The antiviral activity of selected compounds was tested using a cytopathic effect (CPE) reduction assay on HeLa H1 cells (ATCC CRL-1958). Briefly, cells were seeded in 96-well dishes (2×10^4 cells/well) in DMEM medium (Life technologies) supplemented with 10% FBS and PenStrep solution (100 U/mL Penicillin and 100 μg/mL streptomycin) and incubated at 37° C., 5% CO2 ovemight. The next day, cells were pre-treated with serial dilutions of the compound in DMEM medium supplemented with 2% FBS and PenStrep for 2 h at 37° C., 5% CO2. Next, cells were infected with virus (CVB1, HRV-A2, HRV-A23, EV-68) at an multiplicity of infection (MOI) which results in a complete virus-induced CPE within 2 days in control wells (infected and vehicle-treated). After 48 h, supematants were aspirated and 50 μl/well of CellTiterBlue reagent (Promega) diluted 1:5 in DMEM+2% FBS, was added to the cells. Plates were returned to the incubator and allowed to develop for 1.5 h. After that, plates were equilibrated to RT and subsequently, fluorescence was recorded (Excitation wavelength: 560 nm; emission wavelength: 590 nm) using a SpectraMax M5 multimode plate reader. Viability of cells was calculated according to the formula: V=(RFUCpd−RFUVeh/(RFUM−RFUVeh), where RFUCpd refers to infected and compound-treated cells, RFUVeh to infected and vehicle-treated cells and RFUM to uninfected and vehicle treated cells. Half-maximal effective concentrations (EC50) were calculated by non-linear regression analysis using the drc package in R (R Development. Core Team, 2005). EC50 categories as presented in Table 2 were calculated by averaging the EC50 values from four picornaviruses (CVB1, HRV-A2, HRV-A23, EV68).

PLA2G16 = molecular target: T1, PLA2G16 (Homo sapiens, UniProt P53816); assay: Enzyme activity assay for PLA2G16 (Red/Green BODIPY PC-A2 fluorescence); format: biochemical; details: His-tagged PLA2G16, 4 min pre-incubation, 2 nM to 50 μM; read-out: IC50 values of the compounds determined in the enzyme activity assay for PLA2G16
T1 construct: Hexa-His (N); made in house; host or cells: E. coli BL21(DE3)
T1 sequence (P53816 1-162): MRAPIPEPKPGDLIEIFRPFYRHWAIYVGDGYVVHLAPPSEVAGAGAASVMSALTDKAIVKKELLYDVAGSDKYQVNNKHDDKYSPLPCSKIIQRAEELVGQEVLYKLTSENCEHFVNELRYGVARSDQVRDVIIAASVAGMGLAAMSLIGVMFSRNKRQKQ
Procedure, shortened: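 N-His-tagged human PLA2G16 from E. coli, Ni-NTA purified. Pre-incubated 4 min with compound (2 nM–50 μM final) in pH 8.5 Tris/NaCl buffer with 5 mM glutathione, then BODIPY PC-A2 in DOPC/DOPG/cholesterol vesicles added. Fluorescence (ex 480/em 530 nm) increase over 10 min taken as activity; IC50 by non-linear regression.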

| SMILES | EC50 [1] | IC50 (PLA2G16) |
| --- | --- | --- |
| CC(C(=O)C(=O)NC1CC1)N(C=O)C1CCCCC1 (stereo not drawn) [FP 42, 3-(N-Cyclohexylformamido)-N-cyclopropyl-2-oxobutanamide] | 1000 to 10000 nM | < 1000 nM |
| CC(C(=O)C(=O)NC1CC1)N(C=O)Cc1ccccc1 (stereo not drawn) [FP 44, 3-(N-Benzylformamido)-N-cyclopropyl-2-oxobutanamide] | 1000 to 10000 nM | < 1000 nM |
| CC(C)CNC(=O)C(=O)C(C)N(C=O)CC(C)(C)C (stereo not drawn) [FP 45, 3-[N-(2,2-Dimethylpropyl)formamido]-N-(2-methylpropyl)-2-oxobutanamide] | < 1000 nM | < 1000 nM |
| CC(C)CNC(=O)C(=O)C(C)N(C=O)CC(F)(F)F (stereo not drawn) [FP 46, N-(2-Methylpropyl)-2-oxo-3-[N-(2,2,2-trifluoroethyl)formamido]butanamide] | 1000 to 10000 nM | < 1000 nM |
| CC(C)CNC(=O)C(=O)C(C)N(C=O)Cc1ccccc1 (stereo not drawn) [FP 47, 3-(N-Benzylformamido)-N-(2-methylpropyl)-2-oxobutanamide] | 1000 to 10000 nM | < 1000 nM |
| CC(C)N(C=O)C(C)C(=O)C(=O)NCC1CCCCC1 (stereo not drawn) [FP 48, N-(Cyclohexylmethyl)-2-oxo-3-[N-(propan-2-yl)formamido]butanamide] | 1000 to 10000 nM | < 1000 nM |
| CC(C(=O)C(=O)NCC1CCCCC1)N(C=O)CC1CCOCC1 (stereo not drawn) [FP 49, N-(Cyclohexylmethyl)-3-{N-[(oxan-4-yl)methyl]formamido}-2-oxobutanamide] | < 1000 nM | < 1000 nM |
| CC(C(=O)C(=O)NCC1CCCCC1)N(C=O)CC(F)(F)F (stereo not drawn) [FP 50, N-(Cyclohexylmethyl)-2-oxo-3-[N-(2,2,2-trifluoroethyl)formamido]butanamide] | < 1000 nM | < 1000 nM |
| CC(C(=O)C(=O)NCC1CCCCC1)N(C=O)CC1CC1 (stereo not drawn) [FP 51, N-(Cyclohexylmethyl)-3-[N-(cyclopropylmethyl)formamido]-2-oxobutanamide] | 1000 to 10000 nM | < 1000 nM |
| CC(C(=O)C(=O)NCC1CCCCC1)N(C=O)C1CCCCC1 (stereo not drawn) [FP 52, 3-(N-Cyclohexylformamido)-N-(cyclohexylmethyl)-2-oxobutanamide] | < 1000 nM | < 1000 nM |
| CC(C(=O)C(=O)NCC1CCCCC1)N(C=O)CC1CCN(C(=O)OC(C)(C)C)CC1 (stereo not drawn) [FP 53, tert-Butyl 4-[(N-{1-[(cyclohexylmethyl)carbamoyl]-1-oxopropan-2-yl}formamido)-methyl]piperidine-1-carboxylate] | 1000 to 10000 nM | < 1000 nM |
| CC(C(=O)C(=O)NCC1CCCCC1)N(C=O)[C@H]1CC[C@@H](NC(=O)OC(C)(C)C)CC1 (stereo partly drawn) [FP 54, tert-Butyl N-[(1s,4s)-4-(N{1-[(cyclohexylmethyl)carbamoyl]-1-oxopropan-2-yl}-formamido)cyclohexyl]carbamate] | > 10000 nM | < 1000 nM |
| CC(C(=O)C(=O)NCCOC1CCCCC1)N(C=O)C1CCCCC1 (stereo not drawn) [FP 55, 3-(N-Cyclohexylformamido)-N-[2-(cyclohexyloxy)ethyl]-2-oxobutanamide] | < 1000 nM | < 1000 nM |
| COC(=O)CNC(=O)C(=O)C(C)N(C=O)Cc1ccccc1 (stereo not drawn) [FP 56, Methyl 2-[3-(N-benzylformamido)-2-oxobutanamido]acetate] | > 10000 nM | < 1000 nM |
| CC(C)NC(=O)C(=O)C(C)N(C=O)Cc1ccccc1 (stereo not drawn) [FP 57, 3-(N-Benzylformamido)-2-oxo-N-(propan-2-yl)butanamide] | 1000 to 10000 nM | < 1000 nM |
| CCCC(C(=O)C(=O)NCC1CC1)N(C=O)CC1CCOCC1 (stereo not drawn) [FP 58, N-(Cyclopropylmethyl)-3-{N-[(oxan-4-yl)methyl]formamido}-2-oxohexanamide] | 1000 to 10000 nM | < 1000 nM |
| CCC(C(=O)C(=O)NCC1CCCCC1)N(C=O)CC1CCN(C(=O)OC(C)(C)C)CC1 (stereo not drawn) [FP 59, tert-Butyl 4-[(N-{1-[(cyclohexylmethyl)carbamoyl]-1-oxobutan-2-yl} formamido)methyl]-piperidine-1-carboxylate] | 1000 to 10000 nM | < 1000 nM |

| SMILES | EC50 [1] | IC50 (PLA2G16) |
| --- | --- | --- |
| CCC(C(=O)C(=O)NCC1CCCCC1)N(C=O)C1CCCCC1 (stereo not drawn) [FP 60, 3-(N-Cyclohexylformamido)-N-(cyclohexylmethyl)-2-oxopentanamide] | 1000 to 10000 nM | < 1000 nM |
| CCC(C(=O)C(=O)NCC1CCCCC1)N(C=O)CC1CN(C(=O)OC(C)(C)C)C1 (stereo not drawn) [FP 61, tert-Butyl 3-[(NM{1-[(cyclohexylmethyl)carbamoyl]-1-oxobutan-2-yl}formamido)methyl]-azetidine-1-carboxylate] | 1000 to 10000 nM | < 1000 nM |
| CC(C)CC(C(=O)C(=O)NCC1CC1)N(C=O)CC1CC1 (stereo not drawn) [FP 62, N-(Cyclopropylmethyl)-3-[N-(cyclopropylmethyl)formamido]-5-methyl-2-oxohexanamide] | < 1000 nM | < 1000 nM |
| CC(C)CC(C(=O)C(=O)NCC1CC1)N(C=O)CC1CCOCC1 (stereo not drawn) [FP 63, N-(Cyclopropylmethyl)-5-methyl-3-{N-[(oxan-4-yl)methyl]formamido}-2-oxohexanamide] | < 1000 nM | < 1000 nM |
| CC(C)CC(C(=O)C(=O)NCC1CC1)N(C=O)C[C@@H]1CCOC1 (stereo partly drawn) [FP 64, N-(Cyclopropylmethyl)-5-methyl-2-oxo-3-(N{[(3S)-oxolan-3-yl]methyl}formamido) hexanamide] | 1000 to 10000 nM | < 1000 nM |
| CC(C)CC(C(=O)C(=O)NCC1CC1)N(C=O)C[C@H]1CCOC1 (stereo partly drawn) [FP 65, N-(Cyclopropylmethyl)-5-methyl-2-oxo-3-(N-{[(3R)-oxolan-3-yl]methyl}formamido) hexanamide] | 1000 to 10000 nM | < 1000 nM |
| O=CN(CC1CCOCC1)C(C(=O)C(=O)NCC1CC1)C1CC1 (stereo not drawn) [FP 66, 3-Cyclopropyl-N-(cyclopropylmethyl)-3-{N-[(oxan-4-yl)methyl]formamido}-2-oxopropanamide] | 1000 to 10000 nM | < 1000 nM |
| O=CN(Cc1ccccc1)C(C(=O)C(=O)NCC1CC1)C1CC1 (stereo not drawn) [FP 67, 3-(N-Benzylformamido)-3-cyclopropyl-N-(cyclopropylmethyl)-2-oxopropanamide] | < 1000 nM | < 1000 nM |
| O=CN(CC1CCOCC1)C(CCc1ccccc1)C(=O)C(=O)NCC1CC1 (stereo not drawn) [FP 68, N-(Cyclopropylmethyl)-3-{N-[(oxan-4-yl)methyl]formamido}-2-oxo-5-phenylpentanamide] | < 1000 nM | < 1000 nM |
| CC(C(=O)C(=O)NCc1cccc(Cl)c1)N(C)C=O (stereo not drawn) [FP 69, N-[(3-Chlorophenyl)methyl]-3-(N-methylformamido)-2-oxobutanamide] | > 10000 nM | 1000 to 10000 nM |
| COCCC(C(=O)C(=O)NCC1CC1)N(C=O)Cc1ccccc1 (stereo not drawn) [FP 70, 3-(N-Benzylformamido)-MN-(cyclopropylmethyl)-5-methoxy-2-oxopentanamide] | 1000 to 10000 nM | < 1000 nM |
| O=CN(Cc1ccccc1)C(C(=O)C(=O)NCC1CC1)C1CCOCC1 (stereo not drawn) [FP 71, 3-(N-Benzylformamido)-N-(cyclopropylmethyl)-3-(oxan-4-yl)-2-oxopropanamide] | 1000 to 10000 nM | < 1000 nM |
| COCCCN(C=O)C(CC(C)C)C(=O)C(=O)NCC1CC1 (stereo not drawn) [FP 72, N-(Cyclopropylmethyl)-3-[N-(3-methoxypropyl)formamido]-5-methyl-2-oxohexanamide] | 1000 to 10000 nM | < 1000 nM |
| CC(C)CC(C(=O)C(=O)NCC1CC1)N(C=O)CC1CCOC1 (stereo not drawn) [FP 73, N-(Cyclopropylmethyl)-5-methyl-2-oxo-3-{N-[(oxolan-3-yl)methyl]formamido} hexanamide] | 1000 to 10000 nM | < 1000 nM |
| CC(C)CC(C(=O)C(=O)NCC1CC1)N(C=O)CC1CCCO1 (stereo not drawn) [FP 74, N-(Cyclopropylmethyl)-5-methyl-2-oxo-3-{N[(oxolan-2-yl)methyl]formamido} hexanamide] | 1000 to 10000 nM | < 1000 nM |
| COc1ccccc1N(C=O)C(C)C(=O)C(=O)NC(C)(C)C (stereo not drawn) [FP 75, N-tert-Butyl-3-[N-(2-methoxyphenyl)formamido]-2-oxobutanamide] | 1000 to 10000 nM | < 1000 nM |

— US11091428B2 (HAPLOGEN GMBH, priority 2016, dated 2021)
